Tests used:
wild oat [1] = experiment: Test Example 4: herbicidal effect by soil treatment (Table 19, symbol I); assay type: in vivo, wild oat (Avena fatua); settings: amount of applied herbicide 320 g/ha
In short: (§1)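 Step 1: sow seeds in sterilized diluvial soil, cover ~1.5 cm. Step 2: spray diluted emulsion onto soil surface at predetermined rate. Step 3: greenhouse, 25–30° C, three weeks. Step 4: grade effect on each plant by earlier criteria.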

chickweed [2] = experiment: Test Example 5: herbicidal effect by foliage application, plastic box (Table 20, symbol P); assay type: in vivo, common chickweed (Stellaria media); settings: foliage application, 320 g/ha, three weeks after application
In short: (§2)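 Foliar spray test: emulsion formulation diluted in water to a set application rate, sprayed onto 14-day-old plants raised in diluvial soil at 25° C to 30° C under glass. Both herbicidal effect and crop effect rated visually three weeks later.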

rice flat sedge = experiment: Test Example 3: herbicidal effect by foliage application, Wagner pot (Table 18, symbol E); assay type: in vivo, rice flat sedge (Cyperus iria); settings: 320 g/ha
In short: (§3)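 Plants were sown in alluvial soil held under 0.1–0.5 cm standing water and grown 14 days in a greenhouse at 25–30 °C. An emulsifiable formulation, water-diluted to the set dose, was then sprayed onto the foliage, and effects were scored three weeks later using previously defined criteria.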

lambsquarters [3] = experiment: Test Example 5: herbicidal effect by foliage application, plastic box (Table 20, symbol O); assay type: in vivo, lambsquarters (Chenopodium album); settings: foliage application, 320 g/ha, three weeks after application
In short: as §2

wild oat [4] = experiment: Test Example 5: herbicidal effect by foliage application, plastic box (Table 20, symbol I); assay type: in vivo, wild oat (Avena fatua); settings: foliage application, 320 g/ha, three weeks after application
In short: as §2

windgrass [5] = experiment: Test Example 5: herbicidal effect by foliage application, plastic box (Table 20, symbol L); assay type: in vivo, windgrass (Apera spica-venti); settings: foliage application, 320 g/ha, three weeks after application
In short: as §2

Italian ryegrass [6] = experiment: Test Example 5: herbicidal effect by foliage application, plastic box (Table 20, symbol K); assay type: in vivo, Italian ryegrass (Lolium multiflorum); settings: foliage application, 320 g/ha, three weeks after application
In short: as §2

velvetleaf [7] = experiment: Test Example 5: herbicidal effect by foliage application, plastic box (Table 20, symbol M); assay type: in vivo, velvetleaf (Abutilon theophrasti); settings: foliage application, 320 g/ha, three weeks after application
In short: as §2

chickweed [8] = experiment: Test Example 4: herbicidal effect by soil treatment (Table 19, symbol P); assay type: in vivo, common chickweed (Stellaria media); settings: amount of applied herbicide 320 g/ha
In short: as §1

blackgrass [9] = experiment: Test Example 4: herbicidal effect by soil treatment (Table 19, symbol J); assay type: in vivo, blackgrass (Alopecurus myosuroides); settings: amount of applied herbicide 320 g/ha
In short: as §1

redroot pigweed [10] = experiment: Test Example 5: herbicidal effect by foliage application, plastic box (Table 20, symbol N); assay type: in vivo, redroot pigweed (Amaranthus retroflexus); settings: foliage application, 320 g/ha, three weeks after application
In short: as §2

green foxtail [11] = experiment: Test Example 5: herbicidal effect by foliage application, plastic box (Table 20, symbol G); assay type: in vivo, green foxtail (Setaria viridis); settings: foliage application, 320 g/ha, three weeks after application
In short: as §2

redroot pigweed [12] = experiment: Test Example 4: herbicidal effect by soil treatment (Table 19, symbol N); assay type: in vivo, redroot pigweed (Amaranthus retroflexus); settings: amount of applied herbicide 320 g/ha
In short: as §1

southern crabgrass [13] = experiment: Test Example 5: herbicidal effect by foliage application, plastic box (Table 20, symbol F); assay type: in vivo, southern crabgrass (Digitaria ciliaris); settings: foliage application, 320 g/ha, three weeks after application
In short: as §2

windgrass [14] = experiment: Test Example 4: herbicidal effect by soil treatment (Table 19, symbol L); assay type: in vivo, windgrass (Apera spica-venti); settings: amount of applied herbicide 320 g/ha
In short: as §1

velvetleaf [15] = experiment: Test Example 4: herbicidal effect by soil treatment (Table 19, symbol M); assay type: in vivo, velvetleaf (Abutilon theophrasti); settings: amount of applied herbicide 320 g/ha
In short: as §1

Chinese sprangletop = experiment: Test Example 3: herbicidal effect by foliage application, Wagner pot (Table 18, symbol D); assay type: in vivo, chinese sprangletop (Leptochloa chinensis); settings: 320 g/ha
In short: as §3

blackgrass [16] = experiment: Test Example 5: herbicidal effect by foliage application, plastic box (Table 20, symbol J); assay type: in vivo, blackgrass (Alopecurus myosuroides); settings: foliage application, 320 g/ha, three weeks after application
In short: as §2

barnyard grass [17] = experiment: Test Example 5: herbicidal effect by foliage application, plastic box (Table 20, symbol H); assay type: in vivo, barnyard grass (Echinochloa crus-galli); settings: foliage application, 320 g/ha, three weeks after application
In short: as §2

Italian ryegrass [18] = experiment: Test Example 4: herbicidal effect by soil treatment (Table 19, symbol K); assay type: in vivo, Italian ryegrass (Lolium multiflorum); settings: amount of applied herbicide 320 g/ha
In short: as §1

southern crabgrass [19] = experiment: Test Example 4: herbicidal effect by soil treatment (Table 19, symbol F); assay type: in vivo, southern crabgrass (Digitaria ciliaris); settings: amount of applied herbicide 320 g/ha
In short: as §1

persian speedwell [20] = experiment: Test Example 5: herbicidal effect by foliage application, plastic box (Table 20, symbol R); assay type: in vivo, Persian speedwell (Veronica persica); settings: foliage application, 320 g/ha, three weeks after application
In short: as §2

barnyard grass [21] = experiment: Test Example 3: herbicidal effect by foliage application, Wagner pot (Table 18, symbol H); assay type: in vivo, barnyard grass (Echinochloa crus-galli); settings: 320 g/ha
In short: as §3

green foxtail [22] = experiment: Test Example 4: herbicidal effect by soil treatment (Table 19, symbol G); assay type: in vivo, green foxtail (Setaria viridis); settings: amount of applied herbicide 320 g/ha
In short: as §1

lambsquarters [23] = experiment: Test Example 4: herbicidal effect by soil treatment (Table 19, symbol O); assay type: in vivo, lambsquarters (Chenopodium album); settings: amount of applied herbicide 320 g/ha
In short: as §1

persian speedwell [24] = experiment: Test Example 4: herbicidal effect by soil treatment (Table 19, symbol R); assay type: in vivo, Persian speedwell (Veronica persica); settings: amount of applied herbicide 320 g/ha
In short: as §1

barnyard grass [25] = experiment: Test Example 4: herbicidal effect by soil treatment (Table 19, symbol H); assay type: in vivo, barnyard grass (Echinochloa crus-galli); settings: amount of applied herbicide 320 g/ha
In short: as §1

Compound: CCCC(=O)Oc1c(C)nn(C)c(=O)c1-c1c(-c2ccc(F)cc2OC)sc2ccccc12 [1-056]
- herbicidal effect rating, I: wild oat (wild oat [1]): 3 (Herbicidal rate of 40% or more and less than 70%)
- herbicidal effect grade, P: chickweed (chickweed [2]): 5 (Herbicidal rate of 90% or more (almost completely withered))
- herbicidal effect on E (rice flat sedge), rating 0-5 (rice flat sedge): 5 (Herbicidal rate of 90% or more (almost completely withered))
- herbicidal effect grade, O: lambsquarters (lambsquarters [3]): 2 (Herbicidal rate of 20% or more and less than 40%)
- herbicidal effect grade, I: wild oat (wild oat [4]): 4 (Herbicidal rate of 70% or more and less than 90%)
- herbicidal effect grade, L: windgrass (windgrass [5]): 5 (Herbicidal rate of 90% or more (almost completely withered))
- herbicidal effect grade, K: Italian ryegrass (Italian ryegrass [6]): 1 (Herbicidal rate of 5% or more and less than 20%)
- herbicidal effect grade, M: velvetleaf (velvetleaf [7]): 4 (Herbicidal rate of 70% or more and less than 90%)
- herbicidal effect rating, P: chickweed (chickweed [8]): 3 (Herbicidal rate of 40% or more and less than 70%)
- herbicidal effect rating, J: blackgrass (blackgrass [9]): 1 (Herbicidal rate of 5% or more and less than 20%)
- herbicidal effect grade, N: redroot pigweed (redroot pigweed [10]): 3 (Herbicidal rate of 40% or more and less than 70%)
- herbicidal effect grade, G: green foxtail (green foxtail [11]): 5 (Herbicidal rate of 90% or more (almost completely withered))
- herbicidal effect rating, N: redroot pigweed (redroot pigweed [12]): 5 (Herbicidal rate of 90% or more (almost completely withered))
- herbicidal effect grade, F: southern crabgrass (southern crabgrass [13]): 5 (Herbicidal rate of 90% or more (almost completely withered))
- herbicidal effect rating, L: windgrass (windgrass [14]): 5 (Herbicidal rate of 90% or more (almost completely withered))
- herbicidal effect rating, M: velvetleaf (velvetleaf [15]): 0 (Herbicidal rate of 5% or less (almost no effect))
- herbicidal effect on D (Chinese sprangletop), rating 0-5 (Chinese sprangletop): 2 (Herbicidal rate of 20% or more and less than 40%)
- herbicidal effect grade, J: blackgrass (blackgrass [16]): 4 (Herbicidal rate of 70% or more and less than 90%)
- herbicidal effect grade, H: barnyard grass (barnyard grass [17]): 4 (Herbicidal rate of 70% or more and less than 90%)
- herbicidal effect rating, K: Italian ryegrass (Italian ryegrass [18]): 0 (Herbicidal rate of 5% or less (almost no effect))
- herbicidal effect rating, F: southern crabgrass (southern crabgrass [19]): 3 (Herbicidal rate of 40% or more and less than 70%)
- herbicidal effect grade, R: persian speedwell (persian speedwell [20]): 3 (Herbicidal rate of 40% or more and less than 70%)
- herbicidal effect on H (barnyard grass), rating 0-5 (barnyard grass [21]): 4 (Herbicidal rate of 70% or more and less than 90%)
- herbicidal effect rating, G: green foxtail (green foxtail [22]): 5 (Herbicidal rate of 90% or more (almost completely withered))
- herbicidal effect rating, O: lambsquarters (lambsquarters [23]): 3 (Herbicidal rate of 40% or more and less than 70%)
- herbicidal effect rating, R: persian speedwell (persian speedwell [24]): 4 (Herbicidal rate of 70% or more and less than 90%)
- herbicidal effect rating, H: barnyard grass (barnyard grass [25]): 3 (Herbicidal rate of 40% or more and less than 70%)

From patent publication US20230085307A1, “PYRIDAZINONE COMPOUND AND HERBICIDE” (NISSAN CHEMICAL CORPORATION, priority 2019, published 2023)
